Experimental findings from publication PMC6792352, “Limited Chemical Structural Diversity Found to Modulate Thyroid Hormone Receptor in the Tox21 Chemical Library” (Environmental Health Perspectives, 2019) are described below.

Structures can show the parent of a compound that is named as a salt.

A short description of one data set: in vitro. Conditions: rat, gh3-tre-luc cells, AC50 (uM) modified / 1000.
Usually CC50 stands for the concentration giving 50% cytotoxicity. Read a low CC50 as greater toxicity to the cells. `CC1=NC(C)OC1C` (stereo not drawn) [2,4,5-Trimethyl-3-oxazoline] showed a CC50 at 24 h of more than 90 µM.
Still for that read-out and setting: for `Cc1cc(C)c(N)cc1C` [2,4,5-Trimethylaniline] the value was more than 90 µM; for `Nc1c(Cl)cc(Cl)cc1Cl` [2,4,6-Trichloroaniline], more than 90 µM.
The same measure, in the same setting: for `O=[N+]([O-])c1c(Cl)cc(Cl)cc1Cl` [2,4,6-Trichloronitrobenzene] the value was more than 90 µM.
Same read-out and setting: then `Clc1cc(Cl)nc(Cl)n1` [2,4,6-Trichloropyrimidine], with more than 90 µM; and `Cc1cc(C)c(C(=O)O)c(C)c1` [2,4,6-Trimethylbenzoic acid], with more than 90 µM; and `Cc1cc(C)c(O)c(C)c1` [2,4,6-Trimethylphenol], with more than 90 µM.
As to `C=CCOc1nc(OCC=C)nc(OCC=C)n1` [2,4,6-Tris(allyloxy)-1,3,5-triazine], the CC50 at 24 h is more than 90 µM.
Same read-out and setting: then `CN(C)Cc1cc(CN(C)C)c(O)c(CN(C)C)c1` [2,4,6-Tris(dimethylaminomethyl)phenol], with more than 90 µM; and `CCCCOC(=O)COc1ccc(Cl)cc1Cl` [2,4-D 1-butyl ester], with more than 90 µM; and `CC(C)CCCCCOC(=O)COc1ccc(Cl)cc1Cl` [2,4-D isooctyl ester], with more than 90 µM.
Compound `CC(C)OC(=O)COc1ccc(Cl)cc1Cl` [2,4-D isopropyl ester] displayed a 50% cytotoxic concentration (CC50) at 24 h of more than 90 µM.
Same read-out and setting: for `O=C(O)COc1ccc(Cl)cc1Cl` [2,4-D, Dimethylamine salt] the value was more than 90 µM; for `CCCCOCCOC(=O)COc1ccc(Cl)cc1Cl` [2,4-D-Butotyl], more than 90 µM.
Same read-out and setting: for `CC(C)COC(=O)COc1ccc(Cl)cc1Cl` [2,4-D-isobutyl] the value was more than 90 µM; for `COC(=O)COc1ccc(Cl)cc1Cl` [2,4-D-methyl], more than 90 µM.
The same measure, in the same setting: for `CC(C)CCCCCOC(=O)CCCOc1ccc(Cl)cc1Cl` [2,4-DB-isooctyl ester] the value was more than 90 µM.
As to `O=C(O)CCCOc1ccc(Cl)cc1Cl` [2,4-DB-sodium], the CC50 at 24 h is more than 90 µM.
On the same count and under the same terms, for `Nc1cc(O)nc(N)n1` [2,4-Diamino-6-hydroxypyrimidine] the value was more than 50 µM.
Same read-out and setting: for `COc1ccc(N)cc1N` [2,4-Diaminoanisole sulfate] the value was 24.6 µM.
The same measure, in the same setting: for `Nc1ccc(S(=O)(=O)O)c(N)c1` [2,4-Diaminobenzenesulfonic acid] the value was more than 90 µM.
As for `Cc1ccc(N)cc1N` [2,4-Diaminotoluene], the CC50 at 24 h is more than 90 µM.
Still for that read-out and setting: for `O=[N+]([O-])c1cc(C(F)(F)F)c(Cl)c([N+](=O)[O-])c1Cl` [2,4-Dichloro-1,3-dinitro-5-(trifluoromethyl)benzene] the value was 2.31 µM.
On the same count and under the same terms, then `ClCc1ccc(Cl)cc1Cl` [2,4-Dichloro-1-(chloromethyl)benzene], with more than 90 µM; and `Clc1ccc(C(Cl)(Cl)Cl)c(Cl)c1` [2,4-Dichloro-1-(trichloromethyl)benzene], with more than 90 µM; and `Cc1cc(O)c(Cl)c(C)c1Cl` [2,4-Dichloro-3,5-dimethylphenol], with 56.9 µM.
Turning to `Nc1c(Cl)cc(Cl)cc1[N+](=O)[O-]` [2,4-Dichloro-6-nitroaniline], the CC50 at 24 h was more than 90 µM.
The same measure, in the same setting: for `Nc1ccc(Cl)cc1Cl` [2,4-Dichloroaniline] the value was more than 90 µM.
On the same count and under the same terms, then `O=C(O)c1ccc(Cl)cc1Cl` [2,4-Dichlorobenzoic acid], with more than 90 µM; and `FC(F)(F)c1ccc(Cl)cc1Cl` [2,4-Dichlorobenzotrifluoride], with more than 90 µM.
The same measure, in the same setting: for `OCc1ccc(Cl)cc1Cl` [2,4-Dichlorobenzyl alcohol] the value was more than 90 µM; for `O=[N+]([O-])c1ccc(Cl)cc1Cl` [2,4-Dichloronitrobenzene], more than 90 µM.
`Oc1ccc(Cl)cc1Cl` [2,4-Dichlorophenol] showed a CC50 at 24 h of more than 90 µM.
On the same count and under the same terms, then `O=S(=O)(Oc1ccc(Cl)cc1Cl)c1ccccc1` [2,4-Dichlorophenyl benzenesulfonate], with more than 90 µM.
Same read-out and setting: then `O=C(O)Cc1ccc(Cl)cc1Cl` [2,4-Dichlorophenylacetic acid], with more than 90 µM; and `Clc1ccnc(Cl)n1` [2,4-Dichloropyrimidine], with more than 90 µM; and `Cc1ccc(Cl)cc1Cl` [2,4-Dichlorotoluene], with more than 90 µM.
`Nc1ccc(F)cc1F` [2,4-Difluoroaniline] registered a CC50 at 24 h of more than 90 µM.
On the same count and under the same terms, for `O=[N+]([O-])c1ccc(F)cc1F` [2,4-Difluoronitrobenzene] the value was more than 90 µM; for `O=C(O)c1ccc(O)cc1O` [2,4-Dihydroxybenzoic acid], more than 90 µM; for `O=C(c1ccccc1)c1ccc(O)cc1O` [2,4-Dihydroxybenzophenone], more than 90 µM.
On the same count and under the same terms, for `CC(C)c1ccc(O)c(C(C)C)c1` [2,4-Diisopropylphenol] the value was more than 90 µM.
`COc1ccc(N)c(OC)c1` [2,4-Dimethoxyaniline hydrochloride] had a cytotoxic concentration (CC50) at 24 h of more than 50 µM.
`CC1=CC(C)C(C=O)CC1` (stereo not drawn) [2,4-Dimethyl-3-cyclohexene-1-carboxaldehyde] registered a 50% cytotoxic concentration (CC50) at 24 h of more than 90 µM.
Compound `Cc1ccc(N)c(C)c1` [2,4-Dimethylaniline] gave a CC50 at 24 h of more than 90 µM.
The same measure, in the same setting: for `Cc1ccc(O)c(C)c1` [2,4-Dimethylphenol] the value was more than 90 µM; for `NC(=S)NC(N)=S` [2,4-Dithiobiuret], more than 90 µM; for `C/C=C/C=C/COC(=O)C(C)C` [2,4-Hexadienyl isobutyrate], 75.5 µM.
Consider `C[C@@H](O)C[C@@H](C)O` [2,4-Pentanediol], for which the CC50 at 24 h was more than 90 µM.
Same read-out and setting: then `CC(=O)CC(C)=O` [2,4-Pentanedione], with more than 100 µM; and `COCCOCCOCCOCCOCCO` [2,5,8,11,14-Pentaoxahexadecan-16-ol], with more than 90 µM.
For `COCCOCCOCCOCCOC` [2,5,8,11,14-Pentaoxapentadecane], the CC50 at 24 h was more than 90 µM.
The same measure, in the same setting: for `COCCOCCOCCOCCO` [2,5,8,11-Tetraoxatridecan-13-ol] the value was more than 90 µM; for `CCC(C)(C)c1cc(O)c(C(C)(C)CC)cc1O` [2,5-Bis(2-methylbutan-2-yl)benzene-1,4-diol], 53.8 µM; for `CC(C)(C)c1cc(O)c(C(C)(C)C)cc1O` [2,5-Di-tert-butylbenzene-1,4-diol], 37.2 µM.
Same read-out and setting: then `O=C(O)c1cc(Cl)cc([N+](=O)[O-])c1Cl` [2,5-Dichloro-3-nitrobenzoic acid], with more than 90 µM.
On the same count and under the same terms, then `Nc1cc(Cl)ccc1Cl` [2,5-Dichloroaniline], with more than 90 µM; and `COc1cc(Cl)ccc1Cl` [2,5-Dichloroanisole], with more than 90 µM; and `Oc1cc(Cl)ccc1Cl` [2,5-Dichlorophenol], with more than 90 µM.
`Sc1nnc(S)s1` [2,5-Dimercapto-1,3,4-thiadiazole] gave a cytotoxic concentration (CC50) at 24 h of more than 90 µM.
On the same count and under the same terms, for `COc1cc(Cl)c(OC)cc1N` [2,5-Dimethoxy-4-chloroaniline] the value was more than 90 µM; for `COc1ccc(OC)c(CC(C)N)c1` (stereo not drawn) [2,5-Dimethoxyamphetamine hydrochloride], more than 100 µM; for `CC1(O)CSC(C)(O)CS1` (stereo not drawn) [2,5-Dimethyl-1,4-dithiane-2,5-diol], more than 90 µM.
In turn, `CC(C)(O)C#CC(C)(C)O` [2,5-Dimethyl-3-hexyne-2,5-diol] returned a CC50 at 24 h of more than 90 µM.
Still for that read-out and setting: then `Cc1ccc(C)c(N)c1` [2,5-Dimethylaniline], with more than 90 µM; and `Cc1ccc(C)c(S(=O)(=O)O)c1` [2,5-Dimethylbenzenesulfonic acid], with more than 80 µM.
Still for that read-out and setting: for `Cc1ccc(C)o1` [2,5-Dimethylfuran] the value was more than 90 µM; for `CC(C)(O)CCC(C)(C)O` [2,5-Dimethylhexane-2,5-diol], more than 90 µM.
Same read-out and setting: then `Cc1ccc(C)c(O)c1` [2,5-Dimethylphenol], with more than 90 µM.
Consider `NC(=S)NNC(N)=S` [2,5-Dithiobiurea], for which the 50% cytotoxic concentration (CC50) at 24 h was more than 90 µM.
On the same count and under the same terms, for `O=C1C=CC(=O)O1` [2,5-Furandione] the value was more than 100 µM; for `CC(=O)CCC(C)=O` [2,5-Hexanedione], more than 90 µM.

Still in this data set, the particulars now being: rat, gh3-tre-luc cells, AC50 (uM) modified / 1000, Tox21_110001=Tox21_111098; viability, 1 nM T3 present, 24 h.
Compound `Oc1c(Br)cc(Br)cc1Br` [2,4,6-Tribromophenol] came in with a 50% cytotoxic concentration (CC50) at 24 h of more than 50 µM.

The data set is the same for the next values; noted with them: rat, gh3-tre-luc cells, AC50 (uM) modified / 1000, Tox21_110001=Tox21_200321; viability, 1 nM T3 present, 24 h.
Consider `O=C(O)c1cc(Cl)ccc1Cl` [2,5-Dichlorobenzoic acid], for which the CC50 at 24 h was more than 90 µM.

The data set is the same for the next values; noted with them: rat, gh3-tre-luc cells, AC50 (uM) modified / 1000, Tox21_110001=Tox21_201217; viability, 1 nM T3 present, 24 h.
`O=Cc1ccc(Cl)cc1Cl` [2,4-Dichlorobenzaldehyde] yielded a 50% cytotoxic concentration (CC50) at 24 h of more than 90 µM.

The same data set, now with this note: rat, gh3-tre-luc cells, AC50 (uM) modified / 1000, Tox21_110001=Tox21_201273; viability, 1 nM T3 present, 24 h.
`Oc1c(Br)cc(Br)cc1Br` [2,4,6-Tribromophenol] displayed a cytotoxic concentration (CC50) at 24 h of more than 90 µM.

The same data set, now with this note: rat, gh3-tre-luc cells, AC50 (uM) modified / 1000, Tox21_110001=Tox21_201462; viability, 1 nM T3 present, 24 h.
As to `O=[N+]([O-])c1ccc(O)c([N+](=O)[O-])c1` [2,4-Dinitrophenol], the half-maximal cytotoxic concentration (CC50) at 24 h was more than 90 µM.

The same data set, now with this note: rat, gh3-tre-luc cells, AC50 (uM) modified / 1000, Tox21_110001=Tox21_202449; viability, 1 nM T3 present, 24 h.
On to `Clc1nc(Cl)nc(Cl)n1` [2,4,6-Trichloro-s-triazine], for which the CC50 at 24 h is more than 90 µM.

Staying with this data set, now noted: rat, gh3-tre-luc cells, AC50 (uM) modified / 1000, Tox21_110001=Tox21_300030; viability, 1 nM T3 present, 24 h.
As for `O=[N+]([O-])c1ccc(O)c([N+](=O)[O-])c1` [2,4-Dinitrophenol], it took 56.2 µM to reach half-maximal cytotoxicity (CC50 at 24 h).

The same data set, now with this note: rat, gh3-tre-luc cells, AC50 (uM) modified / 1000, Tox21_110001=Tox21_302216; viability, 1 nM T3 present, 24 h.
In the case of `CCOC(=O)COc1ccc(Cl)cc1Cl` [2,4-D-ethyl ester], the CC50 at 24 h is more than 90 µM.

Staying with this data set, now noted: rat, gh3-tre-luc cells, AC50 (uM) modified / 1000, Tox21_110001=Tox21_400070; viability, 1 nM T3 present, 24 h.
Regarding `COc1cc(OC)c(OC)cc1C=O` [2,4,5-Trimethoxybenzaldehyde], the CC50 at 24 h is more than 90 µM.
